Experimental data from patent US7241794B2, “Nonnucleoside reverse transcriptase inhibitors” (RochePalo Alto LLC, priority 2003, dated 2007).

Biological target: HIV-1 RT (Human immunodeficiency virus type 1 group M subtype B, UniProt P03366)
Test: HIV Reverse Transcriptase Assay: Inhibitor IC50 Determination
Type: biochemical
Details: purified recombinant enzyme, poly(rA)/oligo(dT)16 template-primer; read-out: IC50(μM) RTI
Protocol: HIV Reverse Transcriptase Assay: Inhibitor IC50 Determination
HIV-1 RT assay was carried out in 96-well Millipore MultiScreen MADVNOB50 plates using purified recombinant enzyme and a poly(rA)/oligo(dT)16 template-primer in a total volume of 50 μL. The assay constituents were 50 mM Tris/HCl, 50 mM NaCl, 1 mM EDTA, 6 mM MgCl2, 5 μM dTTP, 0.15 μCi [^3H] dTTP, 5 μg/ml poly (rA) pre annealed to 2.5 μg/ml oligo (dT)16 and a range of inhibitor concentrations in a final concentration of 10% DMSO. Reactions were initiated by adding 4 nM HIV-1 RT and after incubation at 37° C. for 30 min, they were stopped by the addition of 50 μl ice cold 20% TCA and allowed to precipitate at 4° C. for 30 min. The precipitates were collected by applying vacuum to the plate and sequentially washing with 3×200 μl of 10% TCA and 2×200 μl 70% EtOH. Finally, the plates were dried and radioactivity counted in a Packard TopCounter after the addition of 25 μl scintillation fluid per well. IC50'swere calculated by plotting % inhibition versus log10 inhibitor concentrations. Representative IC50 data has been included in Table 2.

Compound | IC50
CCc1c(CO)nn(CC)c1Oc1cc(Cl)cc(Cl)c1 [Cpd 17, [5-(3,5-Dichloro-phenoxy)-1,4-diethyl-1H-pyrazol-3-yl]-methanol] | 1.66 µM
CCCc1c(CO)nn(CC)c1Oc1cc(Cl)cc(Cl)c1 [Cpd 22, [5-(3,5-Dichloro-phenoxy)-1-ethyl-4-propyl-1H-pyrazol-3-yl]-methanol] | 1.56 µM
CCc1c(CCO)nn(C(C)C)c1Oc1cc(Cl)cc(Cl)c1 [Cpd 36, 2-[5-(3,5-Dichloro-phenoxy)-4-ethyl-1-isopropyl-1H-pyrazol-3-yl]-ethanol] | 0.0383 µM
CCc1c(CNC=O)nn(C(C)C)c1Oc1cc(Cl)cc(Cl)c1 [Cpd 40, N-[5-(3,5-Dichloro-phenoxy)-4-ethyl-1-isopropyl-1H-pyrazol-3-ylmethyl]-formamide] | 0.648 µM
CCc1c(CCN)nn(C(C)C)c1Oc1cc(Cl)cc(Cl)c1 [Cpd 48, 2-[5-(3,5-Dichloro-phenoxy)-4-ethyl-1-isopropyl-1H-pyrazol-3-yl]-ethylamine] | 1.07 µM

Test system: HXB2-strain of HIV in MT4 cells
Test: Antiviral assay: protection of HIV-infected MT4 cells from cell death (MTT)
Type: cell-based
Details: Human immunodeficiency virus 1, 120 h, MT4 cells infected with HXB2-strain of HIV, 5 days
Protocol: Anti-HIV antiviral activity was assessed using an adaptation of the method of Pauwels et al. {Pauwels et al., 1988, J Virol Methods 20:309-321 }. The method is based on the ability of compounds to protect HIV-infected T lymphoblastoid cells (MT4 cells) from cell-death mediated by the infection. The endpoint of the assay was calculated as the concentration of compound at which the cell viability of the culture was preserved by 50% (‘50% inhibitory concentration’, IC50). The cell viability of a culture was determined by the uptake of soluble, yellow 3-[4,5-dimethylthiazol-2-yl]-2,5-diphenyltetrazolium bromide (MTT) and its reduction to a purple insoluble formazan salt. After solubilization, spectrophotometric methods were employed to measure the amount of formazan product. […]
A fresh solution of 5 mg/mL MTT was prepared in 0.01 M phosphate buffered saline, pH 7.2 and 20 microliters added to each culture. […] When the formazan deposit was fully solubilized by further mixing, the absorbance (OD) of the cultures was measured at 540 nm and 690 nm wavelength (690 nm readings were used as blanks for artifacts between wells). The percent protection for each treated culture was then calculated from the equation: […]

Compound | IC50
CCc1c(CO)nn(CC)c1Oc1cc(Cl)cc(Cl)c1 [Cpd 17, [5-(3,5-Dichloro-phenoxy)-1,4-diethyl-1H-pyrazol-3-yl]-methanol] | 0.0401 µM

Test system: not given
Test: not given
Details: not given

melting point | Compound
118.9 to 120.9 °C | CCc1c(CC(=O)Nc2ccccc2)nn(C(C)C)c1Oc1cc(Cl)cc(Cl)c1 [Cpd 87, 2-[5-(3,5-Dichloro-phenoxy)-4-ethyl-1-isopropyl-1H-pyrazol-3-yl]-N-phenyl-acetamide]
145 to 148 °C | CCc1c(Cc2ncc[nH]2)nn(CC)c1Oc1cc(Cl)cc(Cl)c1 [Cpd 88, 5-(3,5-Dichloro-phenoxy)-1,4-diethyl-3-(1H-imidazol-2-ylmethyl)-1H-pyrazole]
142 to 145.2 °C | CCc1c(Cc2cnc[nH]2)nn(CC)c1Oc1cc(Cl)cc(Cl)c1 [Cpd 90, 5-(3,5-Dichloro-phenoxy)-1,4-diethyl-3-(3H-imidazol-4-ylmethyl)-1H-pyrazole]

More lines, now with the values behind:

Compound | melting point
CCn1nc(CCO)c(Cc2ccncc2)c1Oc1cc(Cl)cc(Cl)c1 [Cpd 85, 2-[5-(3,5-Dichloro-phenoxy)-1-ethyl-4-pyridin-4-ylmethyl-1H-pyrazol-3-yl]-ethanol] | 103 to 105.8 °C
CCc1c(CC(=O)Nc2ccccc2)nn(CC)c1Oc1cc(Cl)cc(Cl)c1 [Cpd 86, 2-[5-(3,5-Dichloro-phenoxy)-1,4-iethyl-1H-pyrazol-3-yl]-N-phenyl-acetamide] | 112.2 to 115.9 °C
